Measured values as given in the supplement of paper PMC10307832.

Assays:
Assay in all cases: relative viability (nuclei count vs DMSO), 5 days (fraction); higher = more cells survive
201T = system: 201T
How it was run: (§1)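 Lung cancer cell lines, seeded in 1536-well plates, were treated the following day by pin tool with a single drug or with five library-drug doses (not always all listed) in √10 steps on top of a fixed anchor-drug dose. Cells were fixed and nuclei stained in one step after 5 days, and nuclei were counted. Relative viability is the nuclei count for treated wells divided by that for vehicle wells, reported as medians of duplicate plates.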

ABC-1 = system: ABC-1
How it was run: as §1

BEN = system: BEN
How it was run: as §1

CAL-12T = system: CAL-12T
How it was run: as §1

COR-L 105 = system: COR-L 105
How it was run: as §1

COR-L23 = system: COR-L23
How it was run: as §1

EKVX = system: EKVX
How it was run: as §1

HARA = system: HARA
How it was run: as §1

HCC-366 = system: HCC-366
How it was run: as §1

LK-2 = system: LK-2
How it was run: as §1

LU99A = system: LU99A
How it was run: as §1

NCI-H1437 = system: NCI-H1437
How it was run: as §1

NCI-H1666 = system: NCI-H1666
How it was run: as §1

NCI-H2009 = system: NCI-H2009
How it was run: as §1

NCI-H2023 = system: NCI-H2023
How it was run: as §1

NCI-H3122 = system: NCI-H3122
How it was run: as §1

NCI-H441 = system: NCI-H441
How it was run: as §1

NCI-H661 = system: NCI-H661
How it was run: as §1

NCI-H727 = system: NCI-H727
How it was run: as §1

NCI-H838 = system: NCI-H838
How it was run: as §1

PC-14 = system: PC-14
How it was run: as §1

## C[C@@H]1CN(CC(=O)Nc2ccc3c(c2)Cc2cccc(-c4cc(=O)cc(N5CCOCC5)o4)c2S3)C[C@H](C)O1 + C[C@]1(O)C[C@@H](c2nc(-c3ccc4ccc(-c5ccccc5)nc4c3)c3c(N)nccn32)C1 [Linsitinib] (partner 1 µM)
201T; first compound 0.04 µM
  relative viability: 1.09
201T; first compound 0.1265 µM
  relative viability: 1.01
201T; first compound 0.4 µM
  relative viability: 1.01
201T; first compound 4 µM
  relative viability: 1.01
ABC-1; first compound 0.1265 µM
  relative viability: 0.781
ABC-1; first compound 0.4 µM
  relative viability: 0.769
ABC-1; first compound 4 µM
  relative viability: 0.673
BEN; first compound 0.04 µM
  relative viability: 0.782
BEN; first compound 0.1265 µM
  relative viability: 0.832
BEN; first compound 0.4 µM
  relative viability: 1.1
BEN; first compound 4 µM
  relative viability: 0.86
CAL-12T; first compound 0.04 µM
  relative viability: 0.893
CAL-12T; first compound 0.1265 µM
  relative viability: 0.78
CAL-12T; first compound 0.4 µM
  relative viability: 0.648
CAL-12T; first compound 4 µM
  relative viability: 0.54
COR-L 105; first compound 0.04 µM
  relative viability: 1.01
COR-L 105; first compound 0.1265 µM
  relative viability: 1.1
COR-L 105; first compound 0.4 µM
  relative viability: 0.746
COR-L 105; first compound 4 µM
  relative viability: 0.996
COR-L23; first compound 0.04 µM
  relative viability: 0.97
COR-L23; first compound 0.1265 µM
  relative viability: 0.878
COR-L23; first compound 0.4 µM
  relative viability: 0.936
COR-L23; first compound 4 µM
  relative viability: 0.796
EKVX; first compound 0.04 µM
  relative viability: 0.954
EKVX; first compound 0.1265 µM
  relative viability: 0.982
EKVX; first compound 0.4 µM
  relative viability: 0.963
EKVX; first compound 4 µM
  relative viability: 0.972
HARA; first compound 0.04 µM
  relative viability: 0.997
HARA; first compound 0.1265 µM
  relative viability: 0.876
HARA; first compound 0.4 µM
  relative viability: 0.893
HARA; first compound 4 µM
  relative viability: 0.906
HCC-366; first compound 0.04 µM
  relative viability: 0.752
HCC-366; first compound 0.1265 µM
  relative viability: 0.622
HCC-366; first compound 0.4 µM
  relative viability: 0.428
HCC-366; first compound 4 µM
  relative viability: 0.495
LK-2; first compound 0.04 µM
  relative viability: 0.255
LK-2; first compound 0.1265 µM
  relative viability: 0.394
LK-2; first compound 0.4 µM
  relative viability: 0.666
LK-2; first compound 4 µM
  relative viability: 0.824
LU99A; first compound 0.04 µM
  relative viability: 0.489
LU99A; first compound 0.1265 µM
  relative viability: 0.46
LU99A; first compound 0.4 µM
  relative viability: 0.572
LU99A; first compound 4 µM
  relative viability: 0.596
NCI-H1437; first compound 0.04 µM
  relative viability: 1.01
NCI-H1437; first compound 0.1265 µM
  relative viability: 0.989
NCI-H1437; first compound 0.4 µM
  relative viability: 0.939
NCI-H1437; first compound 4 µM
  relative viability: 0.575
NCI-H1666; first compound 0.04 µM
  relative viability: 1.08
NCI-H1666; first compound 0.1265 µM
  relative viability: 0.908
NCI-H1666; first compound 0.4 µM
  relative viability: 0.839
NCI-H1666; first compound 4 µM
  relative viability: 0.565
NCI-H2009; first compound 0.04 µM
  relative viability: 1.24
NCI-H2009; first compound 0.1265 µM
  relative viability: 1.13
NCI-H2009; first compound 0.4 µM
  relative viability: 1.1
NCI-H2009; first compound 4 µM
  relative viability: 0.961
NCI-H2023; first compound 0.04 µM
  relative viability: 0.751
NCI-H2023; first compound 0.1265 µM
  relative viability: 0.669
NCI-H2023; first compound 0.4 µM
  relative viability: 0.433
NCI-H2023; first compound 4 µM
  relative viability: 0.496
NCI-H3122; first compound 0.04 µM
  relative viability: 1.07
NCI-H3122; first compound 0.1265 µM
  relative viability: 0.933
NCI-H3122; first compound 0.4 µM
  relative viability: 1.02
NCI-H3122; first compound 4 µM
  relative viability: 0.99
NCI-H441; first compound 0.04 µM
  relative viability: 0.404
NCI-H441; first compound 0.1265 µM
  relative viability: 0.573
NCI-H441; first compound 0.4 µM
  relative viability: 0.536
NCI-H441; first compound 4 µM
  relative viability: 0.433
NCI-H661; first compound 0.1265 µM
  relative viability: 0.556
NCI-H661; first compound 0.4 µM
  relative viability: 0.599
NCI-H661; first compound 4 µM
  relative viability: 0.506
NCI-H727; first compound 0.04 µM
  relative viability: 0.38
NCI-H727; first compound 0.1265 µM
  relative viability: 0.348
NCI-H727; first compound 0.4 µM
  relative viability: 0.332
NCI-H727; first compound 4 µM
  relative viability: 0.3
NCI-H838; first compound 0.04 µM
  relative viability: 0.931
NCI-H838; first compound 0.1265 µM
  relative viability: 0.984
NCI-H838; first compound 0.4 µM
  relative viability: 0.871
NCI-H838; first compound 4 µM
  relative viability: 0.688
PC-14; first compound 0.04 µM
  relative viability: 0.963
PC-14; first compound 0.1265 µM
  relative viability: 0.902
PC-14; first compound 0.4 µM
  relative viability: 0.937
PC-14; first compound 4 µM
  relative viability: 0.754
